{
  "source": "the supplement of paper PMC10883282",
  "test_system": "MES-SA",
  "assay": "relative viability vs DMSO control (72 h) (fraction); higher = more viable cells",
  "summary_of_the_method": "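Sarcoma cell lines were seeded in 384-well plates at densities chosen for 80–90% confluence, then 24 h later given 2.5 µl of serially diluted compound drawn from source plates spanning 10 mM to 0.0002 mM. They were held 72 h at 37 °C, 5% CO2, with 0.1% DMSO vehicle and a 5 µM positive control included. Relative viability was read with ATPLite as percent growth and averaged over up to triplicate wells. Rescaling placed full at 1 and none at 0.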",
  "note": "± gives the standard deviation of the averaged measurements.",
  "data": [
    {"smiles": "COc1cc2c(cc1O)CCN[C@]21CS[C@@H]2c3c(OC(C)=O)c(C)c4c(c3[C@H](COC1=O)N1[C@@H]2[C@H]2c3c(cc(C)c(OC)c3O)C[C@@H]([C@@H]1O)N2C)OCO4", "note": "[Trabectedin]", "values": [
      {"measurement": "relative viability", "setting": "2 pM", "value": "0.939 ± 0.021"},
      {"measurement": "relative viability", "setting": "5 pM", "value": "0.903 ± 0.022"},
      {"measurement": "relative viability", "setting": "15 pM", "value": "0.886 ± 0.036"},
      {"measurement": "relative viability", "setting": "50 pM", "value": "0.819 ± 0.039"},
      {"measurement": "relative viability", "setting": "0.00014 µM", "value": "0.667 ± 0.049"},
      {"measurement": "relative viability", "setting": "0.00041 µM", "value": "0.471 ± 0.025"},
      {"measurement": "relative viability", "setting": "0.0012 µM", "value": "0.0389 ± 0.024"},
      {"measurement": "relative viability", "setting": "0.0037 µM", "value": "0.0573 ± 0.00061"},
      {"measurement": "relative viability", "setting": "0.011 µM", "value": "0.0496 ± 0.003"},
      {"measurement": "relative viability", "setting": "200 fM", "value": "0.997 ± 0.015"},
      {"measurement": "relative viability", "setting": "600 fM", "value": "0.963 ± 0.015"}
    ]},
    {"smiles": "Nc1cc(C(F)(F)F)c(-c2cc(N3CCOCC3)nc(N3CCOCC3)n2)cn1", "note": "[Buparlisib]", "values": [
      {"measurement": "relative viability", "setting": "0.00017 µM", "value": "0.897 ± 0.012"},
      {"measurement": "relative viability", "setting": "0.00051 µM", "value": "0.902 ± 0.0092"},
      {"measurement": "relative viability", "setting": "0.00152 µM", "value": "0.895 ± 0.011"},
      {"measurement": "relative viability", "setting": "0.00457 µM", "value": "0.932 ± 0.022"},
      {"measurement": "relative viability", "setting": "0.01372 µM", "value": "0.907 ± 0.023"},
      {"measurement": "relative viability", "setting": "0.04115 µM", "value": "0.872 ± 0.022"},
      {"measurement": "relative viability", "setting": "0.1235 µM", "value": "0.811 ± 0.022"},
      {"measurement": "relative viability", "setting": "0.3704 µM", "value": "0.677 ± 0.025"},
      {"measurement": "relative viability", "setting": "1.111 µM", "value": "0.208 ± 0.01"},
      {"measurement": "relative viability", "setting": "3.333 µM", "value": "0.0825 ± 0.0014"},
      {"measurement": "relative viability", "setting": "10 µM", "value": "0.037 ± 0.0019"}
    ]},
    {"smiles": "CC(C)NC(=O)C1CCC(n2c(NC(=O)c3ccc(F)cc3)nc3ccc(CN4CCC(C(C)(C)O)CC4)cc32)CC1", "note": "(centres undefined) [Belizatinib]", "values": [
      {"measurement": "relative viability", "setting": "0.00017 µM", "value": "0.942 ± 0.023"},
      {"measurement": "relative viability", "setting": "0.00051 µM", "value": "0.92 ± 0.026"},
      {"measurement": "relative viability", "setting": "0.00152 µM", "value": "0.934 ± 0.012"},
      {"measurement": "relative viability", "setting": "0.00457 µM", "value": "0.957 ± 0.023"},
      {"measurement": "relative viability", "setting": "0.01372 µM", "value": "0.932 ± 0.018"},
      {"measurement": "relative viability", "setting": "0.04115 µM", "value": "0.9451 ± 0.0052"},
      {"measurement": "relative viability", "setting": "0.1235 µM", "value": "0.9316 ± 0.0039"},
      {"measurement": "relative viability", "setting": "0.3704 µM", "value": "0.934 ± 0.037"},
      {"measurement": "relative viability", "setting": "1.111 µM", "value": "0.824 ± 0.022"},
      {"measurement": "relative viability", "setting": "3.333 µM", "value": "0.523 ± 0.024"},
      {"measurement": "relative viability", "setting": "10 µM", "value": "0.148 ± 0.016"}
    ]},
    {"smiles": "N#CC[C@H](C1CCCC1)n1cc(-c2ncnc3[nH]ccc23)cn1", "note": "[Ruxolitinib]", "values": [
      {"measurement": "relative viability", "setting": "0.00017 µM", "value": "1.02 ± 0.024"},
      {"measurement": "relative viability", "setting": "0.00051 µM", "value": "1.01 ± 0.024"},
      {"measurement": "relative viability", "setting": "0.00152 µM", "value": "0.997 ± 0.015"},
      {"measurement": "relative viability", "setting": "0.00457 µM", "value": "0.962 ± 0.058"},
      {"measurement": "relative viability", "setting": "0.01372 µM", "value": "0.992 ± 0.03"},
      {"measurement": "relative viability", "setting": "0.04115 µM", "value": "0.979 ± 0.058"},
      {"measurement": "relative viability", "setting": "0.1235 µM", "value": "0.957 ± 0.042"},
      {"measurement": "relative viability", "setting": "0.3704 µM", "value": "0.981 ± 0.02"},
      {"measurement": "relative viability", "setting": "1.111 µM", "value": "0.84 ± 0.04"},
      {"measurement": "relative viability", "setting": "3.333 µM", "value": "0.825 ± 0.042"},
      {"measurement": "relative viability", "setting": "10 µM", "value": "0.679 ± 0.035"}
    ]}
  ]
}
